# Test results taken from US6524603B1, “Process and composition for the antiparasitic treatment of the surroundings of animals” (priority 1996, dated 2003).
# Tested on: darkling beetles (Alphitobius diaperinus)
# Assay: Poultry house litter treatment, darkling beetle population monitored with 9 traps
# Assay type: in vivo
# Conditions: water-dispersible granules 80% compound (A), 150 g/ha; during the 10th week (end of a rearing cycle)
# Protocol: The treatment took place on the clean litter before the poultry was installed therein. The clean litter was essentially composed of straw.
# On the day after the treatment, a group of chicks aged 1 to 2 days was installed in the rearing house at the rate of approximately 7 animals per m^2.
# The change in the population of darkling beetles (Alphitobius diaperinus) in the litter was regularly monitored using 9 homogeneously distributed traps. Measurements were carried out each week from the second week after the treatment until rearing was halted.
# The total population of darkling beetles in the 9 traps of the treated poultry house varied between 11 and 96 until the 9th week after treatment whereas, in a similar but untreated poultry house, the population of darkling beetles (larvae and adults) oscillated between 1000 and 3000 at each counting point.
smiles,measurement,value
"N#Cc1nn(-c2c(Cl)cc(C(F)(F)F)cc2Cl)c(N)c1[S+]([O-])C(F)(F)F (stereo not shown) [compound (A), 1-[2,6-Cl2-4-CF3phenyl]-3-CN-4-[SO—CF3]-5-NH2pyrazole]",control of darkling beetles,86%
